Data reported in patent publication US20040072211A1, “Methods for identifying ligands using waterlogsy NMR” (PHARMACIA & UPJOHN COMPANY, priority 2002, published 2004).
Read-outs that look alike come from different tables or passages of the source. Each block holds one compound with its values, some of them ahead of it.

Columns and labels:
[1] = biological target: T1, Human Serum Albumin (HSA) (Homo sapiens, UniProt P02768); assay: biochemical; settings: for Interaction with HSA by ITC binding heat effects: 30 μM protein, 1.5 mM ligand
T1 sequence (P02768 25-609): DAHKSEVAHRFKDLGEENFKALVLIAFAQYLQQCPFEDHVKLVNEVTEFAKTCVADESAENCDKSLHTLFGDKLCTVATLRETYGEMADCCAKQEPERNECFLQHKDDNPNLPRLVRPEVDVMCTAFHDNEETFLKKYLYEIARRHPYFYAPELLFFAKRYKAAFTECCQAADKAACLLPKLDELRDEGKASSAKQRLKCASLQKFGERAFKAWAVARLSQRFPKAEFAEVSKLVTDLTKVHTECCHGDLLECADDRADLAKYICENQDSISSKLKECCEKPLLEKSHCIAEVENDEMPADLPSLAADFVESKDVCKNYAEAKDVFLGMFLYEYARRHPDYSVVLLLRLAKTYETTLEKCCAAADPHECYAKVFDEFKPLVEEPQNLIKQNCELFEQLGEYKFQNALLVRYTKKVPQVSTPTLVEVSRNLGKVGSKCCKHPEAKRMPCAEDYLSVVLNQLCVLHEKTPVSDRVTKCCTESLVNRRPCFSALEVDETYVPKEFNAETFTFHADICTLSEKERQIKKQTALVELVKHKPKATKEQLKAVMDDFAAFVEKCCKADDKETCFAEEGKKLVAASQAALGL
Description: FIG. 3. Isothermal titration calorimetry (ITC) data measured on the binding of tryptophan analogues to HSA. […] Dilution heats were collected in blank titrations and were subtracted from the data. […] The solid line represents a calculated curve using the best-fit parameters obtained by a nonlinear least-squares fit to the measured data.
ITC Experiments. […] Heats of dilution were measured in blank titrations by injecting the […] into the buffer used in the particular experiment and were subtracted from the binding heats. Thermodynamic parameters were determined by non-linear least squares methods using routines included in the Origin software package (MicroCal).

[2] = biological target: T1, Human Serum Albumin (HSA); assay: One-dimensional WaterLOGSY NMR spectra of methyl-tryptophan derivatives with HSA; format: binding; parameters: purchased Sigma A-3782; settings: 50 μM compound, 5 μM HSA, PBS pH 7.4, 293 K
Description: FIG. 2. […] Positive and negative signals identify HSA binding and noninteracting molecules, respectively.
Diazepam was purchased from Carlo Erba. The NMR samples were in phosphate buffered saline (PBS) buffer (Sigma) pH 7.4. D2O was added to the solutions (8% final concentration) for the lock signal.
(§1) NMR Experiments. […] For each sample a reference spectrum and a ID WaterLOGSY spectrum were recorded. […] The 1st water selective 180° pulse was 25 milliseconds (ms) long. A weak rectangular PFG is applied during the entire length of the mixing time (1.5 seconds (s)). A short gradient recovery time of 2 ms was introduced at the end of the mixing time before the detection pulse. […] The gradient recovery time was 0.2 s. […] Prior to Fourier transformation the data were multiplied with an exponential function with a line broadening of 1 Hz.
Therefore in an effort to identify a potential reference molecule, three methyl-tryptophan derivatives, namely 5-CH3, 6-CH3, and 7-CH3 Trp, were selected.

[3] = biological target: T1, Human Serum Albumin (HSA); assay: c-WaterLOGSY competition binding experiment, displacement of reference compound 6-CH3 Trp from HSA; parameters: purchased Sigma A-3782
Description: as §1

[4] = biological target: Human Serum Albumin (HSA) site II (Homo sapiens, UniProt P02768); settings: literature knowledge; cited from earlier work
Human Serum Albumin (HSA) site II, sequence (P02768 25-609): as above

Interaction with HSA by ITC binding heat effects ([1]; PBS, 298 K): No net binding heat effects
Interaction with HSA by sign of WaterLOGSY signal (positive = binding, negative = noninteracting) [2]: do not interact with the protein
Signal intensity change of the 6-CH3 Trp reference WaterLOGSY signal in presence of the competitor ([3]; 10 μM competitor, 50 μM 6-CH3 D,L Trp, 5 μM HSA): No signal intensity change
Compound: Cc1cccc2c(CC(N)C(=O)O)c[nH]c12 (racemic) [7-CH3 Trp, 7-CH3-D,L-Trp]

Signal intensity change of the 6-CH3 Trp reference WaterLOGSY signal in presence of the competitor [3]: No signal intensity change
Compound: OC[C@H]1O[C@@](CO)(O[C@H]2O[C@H](CO)[C@@H](O)[C@H](O)[C@H]2O)[C@@H](O)[C@@H]1O [Sucrose]

Compound: N[C@@H](Cc1c[nH]c2ccccc12)C(=O)O [tryptophan]
Binding site on HSA [4]: binds also on site II of HSA

Interaction with HSA by ITC binding heat effects ([1]; PBS, 298 K): No net binding heat effects
Interaction with HSA by sign of WaterLOGSY signal (positive = binding, negative = noninteracting) [2]: do not interact with the protein
Compound: Cc1ccc2[nH]cc(CC(N)C(=O)O)c2c1 (racemic) [5-CH3 Trp, 5-CH3-D,L-Trp]

Kd [1]: 37 µM
association binding constant (KB) [1]: 2.7±0.2 10^4 Mol^−1
Interaction with HSA by ITC binding heat effects ([1]; PBS, 298 K): negative binding heats were observed
ΔH^obs ([1]; ITC, 298 K, PBS): 1.9 ± 0.1 kcal/mol
ΔS ([1]; ITC, 298 K, PBS): 13.79 cal/(mol K)
Interaction with HSA by sign of WaterLOGSY signal (positive = binding, negative = noninteracting) [2]: ligand for HSA
Compound: Cc1ccc2c(CC(N)C(=O)O)c[nH]c2c1 (racemic) [6-CH3 Trp, 6-CH3-D,L-Trp]
